Data reported in ChEMBL document CHEMBL1145307, “Design and synthesis of tetracyclic nonpeptidic biaryl nitrile inhibitors of cathepsin K” (Bioorg Med Chem Lett, 2006).

Legend:
[1] = molecular target: Cathepsin (B and K) (Homo sapiens) (UniProt P43235+P07858); test: Selectivity for cathepsin B over cathepsin K; format: protein assay
[2] = molecular target: Cathepsin S (Homo sapiens, UniProt P25774); test: Inhibition of human cathepsin S
[3] = Volume of distribution in rat at 0.5 mg/kg, iv; format: ADME, organism-based; parameters: dose 0.5 mg/kg, route intravenous; conditions: in vivo, read-out: Vss
[4] = Clearance in rat at 0.5 mg/kg, iv; format: ADME, organism-based; parameters: dose 0.5 mg/kg, route intravenous; conditions: in vivo
[5] = molecular target: T1, Cathepsin K (Homo sapiens, UniProt P43235); test: Inhibition of human cathepsin K
T1 sequence (P43235 whole entry): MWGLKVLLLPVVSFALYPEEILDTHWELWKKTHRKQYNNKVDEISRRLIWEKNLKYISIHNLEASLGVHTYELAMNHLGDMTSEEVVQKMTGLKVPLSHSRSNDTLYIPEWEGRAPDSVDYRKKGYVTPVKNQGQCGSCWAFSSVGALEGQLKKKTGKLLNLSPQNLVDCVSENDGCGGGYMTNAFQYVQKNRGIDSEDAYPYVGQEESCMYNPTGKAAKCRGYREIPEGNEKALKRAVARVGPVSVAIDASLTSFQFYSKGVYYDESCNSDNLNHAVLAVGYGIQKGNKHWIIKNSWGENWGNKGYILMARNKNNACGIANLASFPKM

[6] = molecular target: Procathepsin L (Homo sapiens, UniProt P07711); test: Inhibition of human cathepsin L
[7] = molecular target: Cathepsin (L and K) (Homo sapiens) (UniProt P43235+P07711); test: Selectivity for cathepsin L over cathepsin K; format: protein assay
[8] = tested on: Osteoclast; test: Effect on degradation of bovine bone by rabbit osteoclast; format: functional, cell-based; conditions: Oryctolagus cuniculus
[9] = molecular target: Cathepsin B (Homo sapiens, UniProt P07858); test: Inhibition of human cathepsin B
[10] = molecular target: Cathepsin (S and K) (Homo sapiens) (UniProt P25774+P43235); test: Selectivity for cathepsin S over cathepsin K; format: protein assay
[11] = Mean residence time in rat at 0.5 mg/kg, iv; format: ADME, organism-based; parameters: dose 0.5 mg/kg, route intravenous; conditions: in vivo
[12] = Oral bioavailability in rat at 10 mg/kg, po; format: ADME, organism-based; conditions: in vivo
[13] = tested on: Rattus norvegicus; test: Half life in rat at 10 mg/kg, po; format: ADME, organism-based; parameters: dose 10 mg/kg, route oral; conditions: in vivo
[14] = tested on: Rattus norvegicus; test: Cmax in rat at 10 mg/kg, po; format: ADME, organism-based; parameters: dose 10 mg/kg, route oral; conditions: in vivo
[15] = tested on: Rattus norvegicus; test: Tmax in rat at 10 mg/kg, po; format: ADME, organism-based; parameters: dose 10 mg/kg, route oral; conditions: in vivo
[16] = tested on: Rattus norvegicus; test: AUC in rat at 10 mg/kg, po; format: ADME, organism-based, Plasma; parameters: dose 10 mg/kg, route oral; conditions: in vivo

Sequence of Cathepsin S (P25774 whole entry): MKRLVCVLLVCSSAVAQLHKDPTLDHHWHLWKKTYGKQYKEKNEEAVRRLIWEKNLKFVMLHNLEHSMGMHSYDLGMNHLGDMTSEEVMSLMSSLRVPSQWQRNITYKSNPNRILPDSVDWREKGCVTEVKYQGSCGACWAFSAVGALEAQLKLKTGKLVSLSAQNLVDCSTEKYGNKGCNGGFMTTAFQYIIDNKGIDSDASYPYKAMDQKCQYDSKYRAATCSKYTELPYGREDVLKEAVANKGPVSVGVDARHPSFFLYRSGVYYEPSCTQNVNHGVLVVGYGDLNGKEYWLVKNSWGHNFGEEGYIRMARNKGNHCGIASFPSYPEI
Sequence of Procathepsin L (P07711 whole entry): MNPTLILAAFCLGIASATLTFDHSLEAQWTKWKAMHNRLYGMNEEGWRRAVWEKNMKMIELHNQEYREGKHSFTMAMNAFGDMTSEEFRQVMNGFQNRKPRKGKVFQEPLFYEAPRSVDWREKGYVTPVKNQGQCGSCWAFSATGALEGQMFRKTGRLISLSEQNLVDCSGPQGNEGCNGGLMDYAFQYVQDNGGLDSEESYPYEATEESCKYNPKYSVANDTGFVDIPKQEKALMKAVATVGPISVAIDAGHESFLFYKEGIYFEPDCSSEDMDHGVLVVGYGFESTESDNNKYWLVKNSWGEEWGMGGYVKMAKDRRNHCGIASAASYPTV

## CC(C)CC(C(=O)NCC#N)c1cccc(-c2cccc(-c3csc(N4CCN(C)CC4)n3)c2)c1 (racemic)
[1]
  Selectivity ratio: 16900
[2]
  Ki: 1800 nM
[3]
  Vd: 1.7 L/kg
[4]
  clearance: 32 mL/min/kg
[5]
  Ki: 1.3 nM
[6]
  Ki: 390 nM
[7]
  Selectivity ratio: 300
[8]
  IC50: 59 nM
[9]
  Ki: 22000 nM
[10]
  Selectivity ratio: 1380
[11]
  MRT: 0.9 h

## CC(C)C[C@@H](C(=O)NCC#N)c1cccc(-c2cccc(-c3csc(N4CCC(N(C)C)C4)n3)c2)c1 (some centres undefined)
[1]
  Selectivity ratio: 17000
[2]
  Ki: 3600 nM
[5]
  Ki: 3 nM
[6]
  Ki: 540 nM
[7]
  Selectivity ratio: 180
[8]
  IC50: 172 nM
[9]
  Ki: 51000 nM
[10]
  Selectivity ratio: 1200

## CC(C)C[C@@H](C(=O)NCC#N)c1cccc(-c2ccc(N3CCNCC3)cc2)c1
[1]
  Selectivity ratio: 481
[2]
  Ki: 1690 nM
[3]
  Vd: 14.8 L/kg
[4]
  clearance: 98 mL/min/kg
[5]
  Ki: 8 nM
[6]
  Ki: 4640 nM
[7]
  Selectivity ratio: 580
[8]
  IC50: 95 nM
[9]
  Ki: 3840 nM
[10]
  Selectivity ratio: 212
[11]
  MRT: 2.58 h

## CC(C)CC(C(=O)NCC#N)c1cccc(-c2cccc(-c3csc(N4CCNCC4)n3)c2)c1 (racemic)
[12]
  bioavailability: 85%
[1]
  Selectivity ratio: 22500
[2]
  Ki: 5600 nM
[13]
  T1/2: 3.9 h
[3]
  Vd: 4.3 L/kg
[4]
  clearance: 25 mL/min/kg
[5]
  Ki: 0.8 nM
[6]
  Ki: 190 nM
[7]
  Selectivity ratio: 237
[8]
  IC50: 349 nM
[9]
  Ki: 18000 nM
[14]
  Cmax: 1100 nM
[10]
  Selectivity ratio: 7000
[11]
  MRT: 2.93 h
[15]
  Tmax: 3.33 h
[16]
  AUC: 560 µM·min

## CC(C)C[C@@H](C(=O)NCC#N)c1cccc(-c2cccc(-c3csc(N4CCN(C(C)(C)C)CC4)n3)c2)c1
[1]
  Selectivity ratio: 28500
[2]
  Ki: 5600 nM
[3]
  Vd: 6.6 L/kg
[4]
  clearance: 60 mL/min/kg
[5]
  Ki: 1.3 nM
[6]
  Ki: 360 nM
[7]
  Selectivity ratio: 276
[8]
  IC50: 28 nM
[9]
  Ki: 37000 nM
[10]
  Selectivity ratio: 4310
[11]
  MRT: 1.82 h

## CC(C)C[C@@H](C(=O)NCC#N)c1cccc(-c2cccc(-c3csc(CN4CCNCC4)n3)c2)c1
[1]
  Selectivity ratio: 10600
[2]
  Ki: 7400 nM
[3]
  Vd: 9.1 L/kg
[4]
  clearance: 65 mL/min/kg
[5]
  Ki: 4.8 nM
[6]
  Ki: 680 nM
[7]
  Selectivity ratio: 141
[8]
  IC50: 43 nM
[9]
  Ki: 51000 nM
[10]
  Selectivity ratio: 1540
[11]
  MRT: 2.33 h

## CC(C)CC(C(=O)NCC#N)c1cccc(-c2ccc(-c3csc(N4CCNCC4)n3)cc2)c1 (racemic)
[1]
  Selectivity ratio: 3430
[2]
  Ki: 9500 nM
[3]
  Vd: 12 L/kg
[4]
  clearance: 114 mL/min/kg
[5]
  Ki: 3.5 nM
[6]
  Ki: 2500 nM
[7]
  Selectivity ratio: 714
[8]
  IC50: 12 nM
[9]
  Ki: 12000 nM
[10]
  Selectivity ratio: 2710
[11]
  MRT: 1.77 h
